Reference: patent US10934282B2, “Heteroaromatic modulators of the retinoid-related orphan receptor gamma” (LEO PHARMA A/S, priority 2016, dated 2021)

What was measured:
[1] = target: T1, human RORgt nuclear receptor (RORgT ligand binding domain protein) (Homo sapiens, UniProt P51449); test: ROR-gamma binding assay (Scintillation Proximity Assay, displacement of [3H]-25-hydroxycholesterol); conditions: EC50, SPA, 15 nM [3H]-25-Hydroxycholesterol, RORgT LBD 12 nM
T1 construct: purchased Proteros Biostructures GmbH
T1 sequence (P51449 with tags, fused parts or gaps): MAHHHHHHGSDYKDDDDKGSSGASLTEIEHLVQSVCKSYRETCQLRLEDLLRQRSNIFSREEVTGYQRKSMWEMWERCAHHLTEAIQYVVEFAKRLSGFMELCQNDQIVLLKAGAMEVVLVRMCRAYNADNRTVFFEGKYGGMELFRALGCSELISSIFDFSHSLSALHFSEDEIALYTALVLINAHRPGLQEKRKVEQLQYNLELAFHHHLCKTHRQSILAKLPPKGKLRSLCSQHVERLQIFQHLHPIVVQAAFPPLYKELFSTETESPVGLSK
Procedure: This assay is used to evaluate the binding affinity of compounds to the ligand-binding pocket of the human RORgt nuclear receptor based on displacement of a radio-ligand. The EC50 values are calculated using a four parameter fit. Compounds binding with high affinity to RORgt will have low EC50 values.
The assay is a Scintillation Proximity Assay (SPA) that involves competition between an unlabeled test compound and tritium-labeled 25-hydroxycholesterol for binding to RORgT ligand binding domain (LBD) protein immobilized on the surface of SPA beads. These beads contain a scintillant that emits light if excited by a radioactive particle, and this light is detected using a scintillation counter. In this assay, tritium-labelled 25-hydroxycholesterol is used as radiotracer.
400 nL of titrated test and reference compounds in DMSO were transferred by the Echo liquid handling system to a 384-well assay plate followed by addition of 5 μL [3H]-25-Hydroxycholesterol (Perkin Elmer) and 35 μL diluted RORgT LBD protein with the following amino acid sequence (HIS-FLG-tag): MAHHHHHHGSDYKDDDDKGSSGASLTEIEHLVQSVCKSYRETCQLRLEDLLRQRSNIFSREEVTGYQRKSMWEMWERCAHHLTEAIQYVVEFAKRLSGFMELCQNDQIVLLKAGAMEVVLVRMCRAYNADNRTVFFEGKYGGMELFRALGCSELISSIFDFSHSLSALHFSEDEIALYTALVLINAHRPGLQEKRKVEQLQYNLELAFHHHLCKTHRQSILAKLPPKGKLRSLCSQHVERLQIFQHLHPIVVQAAFPPLYKELFSTETESPVGLSK (SEQ ID NO: 1) (Purchased from Proteros Biostructures GmbH). After 30 min of preincubation, 40 μL of HIS-TAG PVT SPA beads (Perkin Elmer) were added. The plates were then incubated for minimum 4 hours at room temperature in darkness before measuring the SPA signal using a MicroBeta plate scintillation counter. Final assay conditions were: 50 mM HEPES pH 7.4, 150 mM NaCl, 5 mM MgCl2, 0.1% BSA, 4 μg/well HIS-TAG PVT SPA Beads, 30 ng/well RORgT LBD (equal to a final concentration of 12 nM), 15 nM [^3H]-25-Hydroxycholesterol, 0.5% DMSO and varying concentrations of test compound in a total volume of 80 μL/well. EC50 values were calculated using a 4-parameter non-linear regression curve-fitting model.

[2] = tested on: IL-17A levels in human peripheral blood; test: tissue or blood; type: cell-based; conditions: 72 h, read-out: Human Whole blood IL-17A (nM)
[3] = tested on: IL-17A in Human peripheral mononuclear cells; test: Human PBMC IL-17A assay; type: cell-based; conditions: 72 h, EC50, antiCD3/antiCD28-coated beads, 3 days, alpha-LISA
Procedure: This assay measures the IL-17A inhibitory potential of test compounds in Human peripheral mononuclear cells.
Peripheral blood mononuclear cells (PBMC) were isolated from human buffy coats using density grade centrifugation (Lymphoprep, Medinor), washed twice in PBS and frozen at −150° C. for later use.
Test compounds were diluted in DMSO and 70 nL of titrated test and reference compounds were transferred by the Echo liquid handling system to a 384-well assay plate in to give a final concentration of 0.1% DMSO in the wells.
The PBMC were thawed, washed and suspended in RPMI-1640 supplemented with pen/strep, glutamax and 10% bovine calf serum. The cells were mixed with antiCD3/antiCD28-coated beads (1 cells pr one bead) (Milteney T-cell expansion kit), and immediately thereafter the cells were pipetted to the plate at 130,000c/well. The plate was incubated for 3 days in humidified air/CO2 (95%/5%) On day 3 the level of IL-17A in the culture supernatant is measured using alpha-LISA kit (Perkin Elmer). Cell viability was measured by adding 6 uL pr well Prestoblue© (Life Technologies) and incubating for 2 hours followed by fluorescent measurement (Ex535/Em615). EC50 values were calculated using a 4-parameter non-linear regression curve-fitting model. Donors may be pre-screened in order to select PBMC with a high secretion of IL-17A.

Row | SMILES | EC50 [1] | EC50 [2] | EC50 [3]
1 | Cc1c(CN2CCN(C(=O)c3ccccc3)[C@@H](C)C2)cc(Cl)cc1Nc1nnc(C2CCOC2)o1 (stereo partly drawn) [Example 3, [(2S)-4-[[5-chloro-2-methyl-3-[(5-tetrahydrofuran-3-yl-1,3,4-oxadiazol-2-yl)amino]phenyl]methyl]-2-methyl-piperazin-1-yl]-phenyl-methanone] | 22.3 nM | 204 nM | 51.1 nM
2 | Cc1cc(CN2CCN(C(=O)CC3CCC3)[C@@H](C)C2)c(C)c(Nc2nnc([C@@H](C)O)o2)c1 [Example 26, 2-cyclobutyl-1-[(2S)-4-[[3-[[5-[(1R)-1-hydroxyethyl]-1,3,4-oxadiazol-2-yl]amino]-2,5-dimethyl-phenyl]methyl]-2-methyl-piperazin-1-yl]ethanone] | 58.2 nM | 119 nM | 91.3 nM
3 | Cc1cc(CN2CCN(C(=O)OCC(F)(F)F)[C@@H](C)C2)c(C)c(Nc2nnc([C@H]3C[C@@H](O)C3)o2)c1 [Example 70, 2,2,2-trifluoroethyl (2S)-4-[[3-[[5-(3-hydroxycyclobutyl)-1,3,4-oxadiazol-2-yl]amino]-2,5-dimethyl-phenyl]methyl]-2-methyl-piperazine-1-carboxylate] | 52.2 nM | 227 nM | 78.5 nM
4 | Cc1cc(CN2CCN(C(=O)OC(C)C)[C@@H](C)C2)c(C)c(Nc2nnc(C3CCNC(=O)C3)o2)c1 (stereo partly drawn) [Example 58, isopropyl (2S)-4-[[2,5-dimethyl-3-[[5-(2-oxo-4-piperidyl)-1,3,4-oxadiazol-2-yl]amino]phenyl]methyl]-2-methyl-piperazine-1-carboxylate] | 54.4 nM | 215 nM | 373 nM
5 | Cc1c(CN2CCN(C(=O)OC(C)C)[C@@H](C)C2)cc(Cl)cc1Nc1nnc([C@@H](C)O)o1 [Example 39, isopropyl (2S)-4-[[5-chloro-3-[[5-[(1R)-1-hydroxyethyl]-1,3,4-oxadiazol-2-yl]amino]-2-methyl-phenyl]methyl]-2-methyl-piperazine-1-carboxylate] | 29.2 nM | 377 nM | 38.2 nM
6 | CC[C@H](C)C(=O)N1CCN(Cc2cc(Cl)cc(Nc3nnc(COC)o3)c2C)C[C@@H]1C [Example 11, (2S)-1-[(2S)-4-[[5-chloro-3-[[5-(methoxymethyl)-1,3,4-oxadiazol-2-yl]amino]-2-methyl-phenyl]methyl]-2-methyl-piperazin-1-yl]-2-methyl-butan-1-one] | 28.1 nM | 132 nM | 92.6 nM
7 | Cc1cc(CN2CCN(C(=O)OC(C)C)[C@@H](C)C2)c(C)c(Nc2nnc(-c3nonc3C)o2)c1 [Example 54, isopropyl (2S)-4-[[2,5-dimethyl-3-[[5-(4-methyl-1,2,5-oxadiazol-3-yl)-1,3,4-oxadiazol-2-yl]amino]phenyl]methyl]-2-methyl-piperazine-1-carboxylate] | 16.3 nM | 176 nM | 28.1 nM
8 | Cc1cc(CN2CCN(C(=O)C3CCC(F)(F)C3)[C@@H](C)C2)c(C)c(Nc2nnc(CC#N)o2)c1 (stereo partly drawn) [Example 17, 2-[5-[3-[[(3S)-4-(3,3-difluorocyclopentanecarbonyl)-3-methyl-piperazin-1-yl]methyl]-2,5-dimethyl-anilino]-1,3,4-oxadiazol-2-yl]acetonitrile] | 54.5 nM | 131 nM | 230 nM
9 | Cc1cc(CN2CCN(C(=O)OC(C)C)[C@@H](C)C2)c(C)c(Nc2nnc([C@@H]3CNC(=O)O3)o2)c1 [Example 52, isopropyl (2S)-4-[[2,5-dimethyl-3-[[5-[(5S)-2-oxooxazolidin-5-yl]-1,3,4-oxadiazol-2-yl]amino]phenyl]methyl]-2-methyl-piperazine-1-carboxylate] | 42.1 nM | 256 nM | 134 nM
10 | Cc1cc(CN2CCN(C(=O)OC(C)C)[C@@H](C)C2)c(C)c(Nc2nnc(C[C@@H](O)C(F)(F)F)o2)c1 [Example 57, isopropyl (2S)-4-[[2,5-dimethyl-3-[[5-[(2R)-3,3,3-trifluoro-2-hydroxy-propyl]-1,3,4-oxadiazol-2-yl]amino]phenyl]methyl]-2-methyl-piperazine-1-carboxylate] | 23.8 nM | 96.7 nM | 46.5 nM
11 | COCc1nnc(Nc2cc(Cl)cc(CN3CCN(C(=O)C4CCC4)[C@@H](C)C3)c2C)o1 [Example 12, [(2S)-4-[[5-chloro-3-[[5-(methoxymethyl)-1,3,4-oxadiazol-2-yl]amino]-2-methyl-phenyl]methyl]-2-methyl-piperazin-1-yl]-cyclobutyl-methanone] | 40.4 nM | 302 nM | 128 nM
12 | Cc1cc(CN2CCN(C(=O)OC(C)C)[C@@H](C)C2)c(C)c(Nc2nnc([C@H]3NCC[C@H]3O)o2)c1 [Example 77, isopropyl (2S)-4-[[3-[[5-[(2S,3R)-3-hydroxypyrrolidin-2-yl]-1,3,4-oxadiazol-2-yl]amino]-2,5-dimethyl-phenyl]methyl]-2-methyl-piperazine-1-carboxylate] | 61.2 nM | 368 nM | 180 nM
13 | Cc1cc(CN2CCN(C(=O)OC(C)C)[C@@H](C)C2)c(C)c(Nc2nnc([C@@H](C)N)o2)c1 [Example 68, isopropyl (2S)-4-[[3-[[5-[(1R)-1-aminoethyl]-1,3,4-oxadiazol-2-yl]amino]-2,5-dimethyl-phenyl]methyl]-2-methyl-piperazine-1-carboxylate] | 103 nM | 552 nM | 182 nM
14 | Cc1cc(CN2CCN(C(=O)OC(C)C)[C@@H](C)C2)c(C)c(Nc2nnc(C[C@@H](C)O)o2)c1 [Example 61, isopropyl (2S)-4-[[3-[[5-[(2R)-2-hydroxypropyl]-1,3,4-oxadiazol-2-yl]amino]-2,5-dimethyl-phenyl]methyl]-2-methyl-piperazine-1-carboxylate] | 42.3 nM | 101 nM | 106 nM
15 | Cc1cc(CN2CCN(C(=O)C3CCCC3)[C@@H](C)C2)c(C)c(Nc2nnc([C@H]3NCC[C@H]3O)o2)c1 [Example 78, cyclopentyl-[(2S)-4-[[3-[[5-[(2S,3R)-3-hydroxypyrrolidin-2-yl]-1,3,4-oxadiazol-2-yl]amino]-2,5-dimethyl-phenyl]methyl]-2-methyl-piperazin-1-yl]methanone] | 72.5 nM | 157 nM | 95.9 nM
16 | CC[C@H](N)c1nnc(Nc2cc(Cl)cc(CN3CCN(C(=O)OC(C)C)[C@@H](C)C3)c2C)o1 [Example 38, isopropyl (2S)-4-[[3-[[5-[(1S)-1-aminopropyl]-1,3,4-oxadiazol-2-yl]amino]-5-chloro-2-methyl-phenyl]methyl]-2-methyl-piperazine-1-carboxylate] | 49.7 nM | 403 nM | 58.5 nM
17 | Cc1cc(CN2CCN(C(=O)C3CC3)[C@@H](C)C2)c(C)c(Nc2nnc(CC#N)o2)c1 [Example 16, 2-[5-[3-[[(3S)-4-(cyclopropanecarbonyl)-3-methyl-piperazin-1-yl]methyl]-2,5-dimethyl-anilino]-1,3,4-oxadiazol-2-yl]acetonitrile] | 223 nM | 206 nM | 237 nM
